Results taken from patent US20140199714A1, “METHOD FOR DETECTING CANCER CELLS METASTASIZING INTO SENTINEL LYMPH NODE” (SHINSHU UNIVERSITY, priority 2008, published 2014).

Key:
[1] = test system: attachment of carcinoma cells to human LECs; assay: In vitro human LEC attachment assay (ATP or MDA-MB-231 supernatant stimulation); format: cell-based; conditions: 48 hrs. stimulation (10^−7M ATP or MDA-MB-231 supernatant) vs DMEM/F12 Ham negative control; p<0.01; n=5
Procedure: The human LECs were plated to form a monolayer on type I collagen-coated 35 mm plates and incubated to confluence at 37° C. in 5% O2, 5% CO2, and 90% N2. The LECs were kept in serum-starved medium of EBM-2 with 3% FBS. Selected plates were treated with 10^−7M ATP or the supernatant of culture medium of MDA-MB-231 cells for 48 hrs. In some experiments, 10^−6M suramin was simultaneously added to the plates during 48 hrs. treatment with 10^−7M ATP or the culture medium supernatant of MDA-MB-231 cells.
In some experiments, the plates were also treated with anti-human-ICAM-1 antibody (available from R&D Systems, US) for 30 min after 48 hrs. treatment with the culture medium supernatant of MDA-MB-231 or 10^−7M ATP. Breast carcinoma cells stained with PKH26 fluorescent dye (available from SIGMA, US) were then plated at 5×10^4 cells per plate and incubated for 30 min. at 37° C. Unbound cells were removed by aspiration and the plates washed with DMEM/F12 three times. Attachment was quantitated by counting cells under ×100 magnification using a microscope (available from Leica, Switzerland).

[2] = test system: ICAM-1 on human LECs; assay: Immunohistochemical expression of ICAM-1 on cultured human LECs; format: cell-based
[3] = test system: prostate cancer cells; conditions: via P2 receptors; cited from earlier work
[4] = test system: E-selectin on human LECs; assay: Immunohistochemical expression of E-selectin on cultured human LECs; format: cell-based; conditions: 18 hrs.-stimulation with 10 ng/mL TNF-α or 100 ng/mL LPS
Procedure: (§1) Using an indirect immunohistochemical technique, the inventors examined the effects of the supernatants of culture medium of two kinds of carcinoma cells, MDA-MB-231 and MCF-7, on the expression of adhesion molecules such as E-selectin, P-selectin, vascular cell adhesion molecule (VCAM)-1, and intercellular adhesion molecule (ICAM)-1 on the human LECs. The carcinoma cells were plated in DMEM/F12 with 10% FBS, which was replaced the following day with DMEM/F12 with 3% FBS, and then collected after overnight culture. The collected solution was centrifuged at 2,000 rpm for 5 min. at 4° C. To examine the effects of the supernatants on the expression of the adhesion molecules on the human LECs, 1 mL of each collected solution was added to starvation culture medium, EBM-2 with 3% FBS of the human LECs, and then stimulated for 48 hrs. on the cells. In some experiments, the supernatant solutions at different concentrations (1/100 or 1/10,000 dilution) were constructed with appropriate volumes of DMEM/F12 with 3% FBS.
(§2) Indirect immunohistochemical studies were performed on the cultured LECs seeded or glass slides coated with type I collagen, and then the cells were fixed with 3.3% formalin in phosphate-buffered saline solution (PBS), for 20 min. at room temperature. The cells were washed three times with PBS, and then incubated overnight at 4° C. with primary polyclonal human antisera to E-selectin/CD62E (dilution 10 μg/mL, available from R&D Systems, US), P-selectin/CD62P (dilution 10 μg/mL, available from R&D Systems, US), VCAM-1/CD106 (dilution 10 μg/mL, available from R&D Systems, US), and ICAM-1/CD54 (dilution 10 μg/mL, available from R&D Systems, US).
(§3) Before primary staining, the cultured cells were permeabilized with 0.1% TRITON-X. After washing three times in PBS, the cells were incubated for 1 hr. at room temperature with 1:100 diluted ALEXA FLUOR 488 donkey anti-mouse IgG (available from Invitrogen, US). The nuclei of cultured cells were counter-stained and mounted with PROLONG GOLD antifade reagent with 4′-6-diamidine-2-phenylindole (DAPI) (available from Molecular Probes, US), examined by a fluorescent microscope (Leica, Switzerland), and photographed.
(§4) Immunohistochemistry was performed on the cultured human LECs or the fresh-frozen SLNs isolated from the breast cancer patients. In brief, the cultured LECs were fixed with 10% formalin in the phosphate-buffered saline solution (PBS) at room temperature. The cells were incubated for 4 hrs. at room temperature with primary polyclonal human antisera platelet-endothelial cell adhesion molecule (PECAM)-1 (dilution 1:100, available from BD Biosciences, US), lymphatic vessel endothelial hyaluronan receptor (LYVE)-1 (dilution 1:50, available from RELIATech, Germany), PROX-1 (dilution 1:50, available from AngioBio, US), podoplanin (dilution 1:50, available from AngioBio, US), vascular endothelium growth factor receptor 3 (VEGF R3) (dilution 1:50, available from Santa Cruz, US), E-selectin/CD62E (dilution 1:50, available from R&D systems, US), P-selectin/CD62P (dilution 1:50, available from R&D systems, US), vascular cell adhesion molecule (VCAM)-1/CD106 (dilution 1:50, available from R&D systems, US), and intercellular adhesion molecule (ICAM)-1/CD54 (dilution 1:50, available from R&D systems, US). Before the staining, permeabilization of the cultured cells with 0.1% TRITON-X was performed. Then, the cells were stained using the following antibodies: ALEXA FLUOR 488 chicken anti-rabbit IgG or ALEXA FLUOR 488 donkey anti-mouse IgG (available from Invitrogen, US). The nuclei of the cultured cells were counter-stained and mounted with ProLong Gold antifade reagent with 4′-6-diamidine-2-phenylindole (DAPI) (available from Molecular Probes, US). The cultured cells were examined by a fluorescent microscope (available from Leica, Germany) and photographed. […]

[5] = test system: P-selectin on human LECs; assay: Immunohistochemical expression of P-selectin on cultured human LECs; format: cell-based; conditions: 18 hrs.-stimulation with 10 ng/mL TNF-α or 100 ng/mL LPS
Procedure: as §1, §2
Before primary staining, the cultured cells were permeabilized with 0.1% TRITON-X. After washing three times in PBS, the cells were incubated for 1 hr. at room temperature with 1:100 diluted ALEXA FLUOR 488 donkey anti-mouse IgG (available from Invitrogen, US). […]

[6] = test system: VCAM-1 on human LECs; assay: Immunohistochemical expression of VCAM-1 on cultured human LECs; format: cell-based; conditions: 18 hrs.-stimulation with 10 ng/mL TNF-α or 100 ng/mL LPS
Procedure: as §1, §2, §3, §4

[7] = test system: F-actin in LECs derived from human collecting lymph vessel; assay: Staining of cytoskeletal protein F-actin in human LECs; format: cell-based; conditions: 10 ng/mL TNF-α; 1 ng/mL and 10 ng/mL IL-1β; 2 hrs. at 37° C.; vs negative control
Procedure: LECs derived from human collecting lymph vessel, which were transplanted into a culture system, were plated on glass slide, and repeatedly subcultured to confluence. Stimulating factors of 10 ng/mL of tumor necrosis factor-α (TNF-α) of Catalog No. T-0157 (available from SIGMA, US), 1 ng/mL and 10 ng/mL of interleukin-1β (IL-1β) of Catalog No. 200-01B (available from PeproTech, US) were respectively dissolved in EBM-2 containing 3% FBS of Catalog No. CC-3156 (available from Sankyo Junyaku Co., Ltd., Japan) and added onto the cells, and then the cells were incubated for 2 hrs. at 37° C. They were fixed with 3.7% formalin. They were washed with PBS solution, and then still stood in PBS solution containing 0.1% TRITON X-100 of Catalog No. X-100 (available from SIGMA, US) for 5 min. Additionally they were washed with PBS solution, and then phalloidin-FITC antibody of Catalog No. P-5282 (available from SIGMA, US) diluted 500 times with PBS solution containing 0.1% BSA was added thereto. They were still stood for 2 hrs. at room temperature. After they were washed with PBS solution, and mounted in MOBI GLOW MOUNTING MEDIUM. Also negative control was similarly prepared except for using no stimulating factor. […] The LECs of the negative control without the stimulating factor indicate obscure green fluorescence, and there were few expression of F-actin.

| Compound | in vitro attachment of carcinoma cells to human LECs [1] | expression of ICAM-1 on human LECs ([2]; 10^−8 or 10^−7M ATP for 48 hrs.) | inhibition of growth of prostate cancer cells in vitro [3] | expression of E-selectin on human LECs (positive controls) [4] | expression of P-selectin on human LECs (positive controls) [5] | expression of VCAM-1 on human LECs (positive controls) [6] | expression of F-actin (phalloidin-FITC fluorescence) [7] | expression of ICAM-1 on human LECs (positive controls) ([2]; 18 hrs.-stimulation with 10 ng/mL TNF-α or 100 ng/mL LPS) |
| --- | --- | --- | --- | --- | --- | --- | --- | --- |
| Nc1ncnc2c1ncn2[C@@H]1O[C@H](COP(=O)(O)OP(=O)(O)OP(=O)(O)O)[C@@H](O)[C@H]1O [ATP] | significant increase | marked expression | up to 90% | – | – | – | – | – |
| TNF-α | – | – | – | marked expression | marked expression | marked expression | increase of expression of F-actin | marked expression |
